According to patent US20050222264A1, “Anti-rhinovirus active agents” (UNIHART CORPORATION, priority 2002, published 2005):

Key:
Type in all cases: cell-based, Human Rhinoviruses
Settings in all cases: count after 3 days
Rhinovirus H Strain [1] = test: Plaques assay on cell mono-layers, Rhinovirus H strain, WI38
Protocol: (§1) The activity of the above compounds was evaluated in a plaque inhibition assay carried out on mono-layers of kidney cells from Rhesus monkey and from WI38 and Ohio-HeLa human cells, suitable for the propagation of Rhinoviruses M and H strains respectively. In this assay, the addition to the culture medium of an agent able to impede the viral penetration in the cells reduces the formation of microplaques compared with an untreated control culture. Therefore, the effectiveness of the test compound can be determined by counting the microplaques in treated and non-treated cultures after exposure to the virus.
• 1. prepare confluent kidney cell mono-layers from Rhesus monkeys and from human cell lines (WI 38, MRC-5 and Ohio-Hela cells) in 6.75 cm Ø Petri dishes; • 2. aspirate the growth medium; • 3. wash each dish with 10 ml of culture medium (serum-free growth medium), Earle's saline solution—lactoalbumine hydrolysate and incubate at 33° C. for 60′; • 4. aspirate the liquid; • 5. prepare serial 1:10 viral dilutions (Rhinovirus-strain M and Rhinovirus-strain H) in Earle's saline solution—lactoalbumine hydrolysate and inoculate each dish with 0.2 ml volumes of viral dilution. Each viral dilution is inoculated in duplicate. • 6. […]

Rhinovirus H Strain [2] = test: Plaques assay on cell mono-layers, Rhinovirus H strain, Ohio-HeLa
Protocol: as §1
(§2) • 1. prepare confluent kidney cell mono-layers from Rhesus monkeys and from human cell lines (WI 38, MRC-5 and Ohio-Hela cells) in 6.75 cm Ø Petri dishes; • 2. aspirate the growth medium; • 3. wash each dish with 10 ml of culture medium (serum-free growth medium), Earle's saline solution—lactoalbumine hydrolysate and incubate at 33° C. for 60′; • 4. aspirate the liquid; • 5. prepare serial 1:10 viral dilutions (Rhinovirus-strain M and Rhinovirus-strain H) in Earle's saline solution—lactoalbumine hydrolysate and inoculate each dish with 0.2 ml volumes of viral dilution. Each viral dilution is inoculated in duplicate. • 6. Prepare analogous serial viral dilutions (as in 5) in Earle's saline solution—lactoalbumine hydrolysate, added with the anti-viral test compound at the desired concentration. • 7. Prepare Earle's saline solution—lactoalbumine hydrolysate added with the test anti-viral compound at the desired concentration as the control (one control for each test compound). • 8. incubate the infected mono-layers at 33° C. for 60′, gently rocking the dishes at 15′ intervals in order to evenly distribute the inoculum; • 9. place the dishes on a flat surface; • 10. thoroughly add 10 ml of nutritive agar in Earle's saline solution—calf serum, equilibrated at 44° C., to each dish and allow to harden. […]

Rhinovirus M Strain = test: Plaques assay on cell mono-layers, Rhinovirus M strain, MKC-5
Protocol: as §1, §2

[3] = dilution of inoculated virus 10^−3, same molar concentration of a 12.5 γ/ml xenaldial solution
[4] = dilution of inoculated virus 10^−4, same molar concentration of a 12.5 γ/ml xenaldial solution
[5] = dilution of inoculated virus 10^−5, same molar concentration of a 12.5 γ/ml xenaldial solution

CCOC(Nc1ccc(C(=O)O)cc1)C(=O)c1ccc(-c2ccccc2)cc1 (stereo not drawn) [Xenalamine, p-(α-ethoxy-p-phenyl-phenacylamino)-benzoic acid, reference compound]
n° of plaques in 2 dishes (Rhinovirus H Strain [1]; [3]): 3
n° of plaques in 2 dishes (Rhinovirus H Strain [1]; [4]): 1
n° of plaques in 2 dishes (Rhinovirus H Strain [2]; [3]): 2
n° of plaques in 2 dishes (Rhinovirus H Strain [2]; [4]): 1
n° of plaques in 2 dishes (Rhinovirus H Strain [2]; [5]): 1
n° of plaques in 2 dishes (Rhinovirus M Strain; [3]): 4
n° of plaques in 2 dishes (Rhinovirus M Strain; [4]): 2
n° of plaques in 2 dishes (Rhinovirus M Strain; [5]): 1
